Data published in paper PMC5402990 (PLoS Neglected Tropical Diseases, 2017).
Counter-ions that a name gives are not always drawn. Like-named read-outs stand apart in the source and are kept apart here.

Columns and labels:
[1] = tested on: endosome acidification in BSC-1 cells; format: cell-based, Grivet monkey
cathepsin B and L = format: cell-based, Grivet monkey; conditions: pH 5
in vitro [2] = conditions: human
Huh 7 cells = conditions: human
MARV = test: organism not typed; format: cell-based, Marburg virus
[3] = mouse, in vivo
[4] = human, in vivo; cited from earlier work
EBOV trVLPs = format: cell-based, Ebola virus
EBOV GP VLPs = format: cell-based, Ebola virus
in vitro [5] = conditions: human; remark: listed apart in the source
in vivo = conditions: mouse, ip, 10 mg/kg
[6] = tested on: EBOV VLP trafficking in BSC-1 cells; format: cell-based, Grivet monkey
in vitro [7] = conditions: African green monkey
EBOV/Mak = test: microbe, parasite or virus in culture; format: cell-based, Ebola virus; conditions: for IC50: Zaire ebolavirus
[8] = tested on: cholesterol levels in endolysosomes of BSC-1 cells; format: cell-based, Grivet monkey

In the case of Cc1cccc(/C=N/Nc2cc(N3CCOCC3)nc(OCCc3ccccn3)n2)c1 [Apilimod, apilimod], the “effect on endosome acidification” value [1] is reported as “no detectable effect on endosome acidification”, the “effect on the activity of cathepsin B and L” value (cathepsin B and L) is reported as “no apparent direct effect” and the CC50 (in vitro [2]) is reported as over 2000 nM. The CC50 (Huh 7 cells) was 500 ± 100 nM, the IC50 (MARV) was 10 nM and the “fold higher activity than the positive control” value (MARV) was 38- to 1160 fold. It also gave an IC50 (MARV; 48 h) of 10 ± 4 nM, an IC50 (MARV; Huh-7, 48 h) of 140 ± 50 nM and an IC50 (MARV; Vero C1008) of 15 to 25 nM. The IC50 (MARV; Vero C1008, 48 h) was 15 ± 3 nM, the “Cmax relative to IC50 in hMDMs” value [3] was ~ 250 times and the tolerability in humans [4] was “well-tolerated”. For the same compound, the “EBOV particle replication (trVLP infection)” value (EBOV trVLPs) was “blocked”, the “EBOV VLP entry” value (EBOV GP VLPs) was “blocks EBOV VLP entry into BSC-1 cells with the same approximate dose-dependency as its effects in HEK 293T/17 cells” and the “EBOV particle (VLP) entry” value (EBOV GP VLPs) was “blocked”. The CC50 (in vitro [5]) was 480 ± 80 nM, the Cmax (in vivo) was 2530 nM and the “EBOV VLP trafficking to NPC1+ endolysosomes (Manders colocalization)” value [6] was “blocked EBOV VLP trafficking to NPC1^+ endolysosomes to a similar extent as nocodazole”. The “VLP colocalization with EEA1+ endosomes” value [6] was “caused EBOV VLPs to accumulate in EEA1^+ endosomes”, the “VLP colocalization with NPC1 over time course” value [6] was “at no point during this time course were VLPs seen to associate with NPC1^+ endolysosomes” and the CC50 (in vitro [7]) was over 2000 nM. The “fold higher activity than the positive control, toremifene citrate” value (EBOV/Mak) was 6- to 247 fold, the “fold less potent in Huh 7 cells” value (EBOV/Mak) was ~ 10 fold and the IC50 (EBOV/Mak) was 10 nM. It also gave an IC50 (EBOV/Mak; 48 h) of 9 ± 1 nM, an IC50 (EBOV/Mak; Huh-7) of 140 nM and an IC50 (EBOV/Mak; Huh-7, 48 h) of 136 ± 40 nM. For the same compound, the IC50 (EBOV/Mak; Vero C1008) was 15 to 25 nM, the IC50 (EBOV/Mak; Vero C1008, 48 h) was 25 ± 10 nM and the “cholesterol levels in endolysosomes” value [8] was “did not cause a detectable increase”.

With CN(C)CCOc1ccc(/C(=C(/CCCl)c2ccccc2)c2ccccc2)cc1 [Toremifene citrate] the IC50 (MARV) was 11600 nM, the IC50 (MARV; Huh-7) was 5380 nM and the IC50 (MARV; Vero C1008) was 2360 nM. It also gave an IC50 (EBOV/Mak) of 2470 nM, an IC50 (EBOV/Mak; Huh-7) of 730 nM and an IC50 (EBOV/Mak; Vero C1008) of 1670 nM.

For CO/C1=C\C(C)=C\[C@@H](C)[C@@H](O)[C@@H](C)C/C(C)=C/C=C/[C@H](OC)[C@@H]([C@@H](C)[C@@H](O)[C@H](C)[C@@]2(O)C[C@@H](O)[C@H](C)[C@@H](C(C)C)O2)OC1=O [Bafilomycin], the “effect on endosome acidification” value [1] was “blocks endosome acidification”.

With COC(=O)Nc1nc2ccc(C(=O)c3cccs3)cc2[nH]1 [nocodazole, Nocodazole] the “EBOV VLP trafficking to NPC1+ endolysosomes (Manders colocalization)” value [6] was “blocked EBOV VLP trafficking to NPC1^+ endolysosomes to a similar extent as nocodazole”.
